Calls of active or inactive are those of the source.
What was measured:
[1] = inhibitors of clade B AD8 Env fusion, dose response, cell-based, cherry-pick (AID 652062); type: functional;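 also: luciferase signal from cell-cell fusion driven by HIV-1 clade B AD8 Env; potency is for inhibitors of fusion seen as a drop in luminescence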
[2] = test system: Jurkat; assay: antigen receptor-induced NF-kB inhibitors, dose response, Jurkat, luciferase reporter, luminescence, B- and T-cell (AID 489004); type: functional, cell-based; conditions: Homo sapiens;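 also: NF-kB luciferase reporter Jurkat cells stimulated with PMA plus ionomycin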
[3] = inhibitors of HIV Env-driven cell fusion, dose response, cherry-pick (AID 652057); type: functional, cell-based
[4] = CEM21 lymphoblast cell cytotoxicity, dose response, cytotoxicity control for viral fusion inhibitor project, CellTiter-Glo luminescence, cherry-picked (AID 652042); type: functional, cell-based;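 also: potency for signal decrease meaning cytotoxicity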
[5] = ZM109 Env clade C HIV-1 fusion inhibitors, dose response, HeLa effector, CEM target cells, luciferase, cherry-pick (AID 652058); type: functional, cell-based
[6] = cytotoxicity in HEK-293T NF-kB-Luc cells, dose response, cytotoxicity control for B/T-cell NF-kB inhibitor project, cell-based, uHTS hits (AID 489019); type: functional;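 also: IC50 reflects cytotoxicity as loss of cell viability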
[7] = Luminescence Cell-Based Dose Retest to Confirm Inhibitors of Cancer Stem Cells. [Related pubchem assays (depositor defined):AID2717, AID2721]; type: functional; conditions: Homo sapiens
[8] = target: Paired box protein Pax-8 (Homo sapiens, UniProt Q06710); assay: inhibitors of PAX8-driven TPO luciferase reporter, dose response, RMG-I cells, cherry-pick (AID 687027); type: functional, cell-based;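 also: luciferase reporter driven by Pax8 target thyroperoxidase promoter measured by SteadyGlo luminescence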
[9] = off-target signal loss in HeLa-CEM21 co-culture – HeLa F-luc CTL cells, cherry-picked, counter-screen for HIV-1 Env fusion inhibitor project, dose response (AID 652040); type: functional, cell-based;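 also: potency for signal decrease marking cytotoxic or nonspecific inhibition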
[10] = target: T1, Endoribonuclease toxin MazF (Escherichia coli K-12, UniProt P0AE70); assay: fluorescent RNA oligo signal without MazF, dose response, counter-screen for MazEF activator project, biochemical, fluorescence, single-stranded RNase substrate (AID 588502); type: functional
T1 sequence (P0AE70 whole entry): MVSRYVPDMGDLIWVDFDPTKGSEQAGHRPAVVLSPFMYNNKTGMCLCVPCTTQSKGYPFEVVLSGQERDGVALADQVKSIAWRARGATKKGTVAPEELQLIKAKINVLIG

[11] = target: T1, Endoribonuclease toxin MazF; assay: MazF toxin RNase activators, dose response, biochemical, fluorescence, single-stranded RNA substrate, uHTS hits (AID 588481); type: functional
[12] = target: T2, RNA-binding protein pos-1 (Caenorhabditis elegans, UniProt G5EF15); assay: inhibitors of POS-1/mex-3 RNA binding, dose response, biochemical, fluorescence polarization (AID 1964);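 also: purified POS-1 fused to maltose binding protein made in E. coli; potency of compounds blocking POS-1 binding to fluorescent RNA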
T2 sequence (G5EF15 whole entry): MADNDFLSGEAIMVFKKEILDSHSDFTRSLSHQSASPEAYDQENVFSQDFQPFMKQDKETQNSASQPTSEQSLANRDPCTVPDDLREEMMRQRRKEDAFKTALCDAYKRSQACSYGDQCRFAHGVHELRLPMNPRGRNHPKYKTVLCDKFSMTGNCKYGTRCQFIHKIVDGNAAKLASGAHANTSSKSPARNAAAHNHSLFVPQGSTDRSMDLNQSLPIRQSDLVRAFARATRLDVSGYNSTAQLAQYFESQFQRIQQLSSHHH

[13] = target: T3, Zinc finger protein mex-5 (Caenorhabditis elegans, UniProt Q9XUB2); assay: MEX-5/TCR-2 RNA interaction inhibitors, dose response, biochemical, C. elegans, fluorescence polarization (AID 1960)
T3 sequence (Q9XUB2 whole entry): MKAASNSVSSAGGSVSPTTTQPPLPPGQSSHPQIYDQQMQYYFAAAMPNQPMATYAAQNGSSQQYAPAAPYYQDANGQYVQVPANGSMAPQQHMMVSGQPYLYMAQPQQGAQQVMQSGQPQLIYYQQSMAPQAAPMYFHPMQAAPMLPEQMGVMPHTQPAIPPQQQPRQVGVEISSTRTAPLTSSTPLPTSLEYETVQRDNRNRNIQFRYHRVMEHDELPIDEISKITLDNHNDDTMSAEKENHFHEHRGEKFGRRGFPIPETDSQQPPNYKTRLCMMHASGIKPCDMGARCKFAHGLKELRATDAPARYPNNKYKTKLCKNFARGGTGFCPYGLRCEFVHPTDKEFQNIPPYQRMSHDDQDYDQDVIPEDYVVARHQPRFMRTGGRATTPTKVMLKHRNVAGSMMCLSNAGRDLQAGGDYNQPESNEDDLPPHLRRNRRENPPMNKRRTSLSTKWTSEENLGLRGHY

[14] = test system: HeLa; assay: HeLa cell cytotoxicity, dose response, cytotoxicity control, 24 h, cherry-picked samples (AID 504726); type: functional, cell-based; conditions: Homo sapiens;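 also: potency for cytotoxicity as loss of luminescence signal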
[15] = Luminescence Cell-Based Dose Response HTS to Identify Activators of Luciferase Translation or Activity in H4 […] Cells. [Related pubchem assays: 1829 (Project Summary), 1814 (Primary HTS)]; type: functional
[16] = cells; type: functional, cell-based
[17] = cells; type: functional, cell-based; remark: listed apart in the source
[18] = test system: H4; assay: Luminescence Cell-Based Dose Response HTS to Identify Activators of 5'UTR Stem-Loop Driven Prion Protein mRNA Translation in H4 Neuroglioblastoma Cells. [Related pubchem assays: 1829 (Project Summary), 1814 (Primary HTS)]; type: functional; conditions: Homo sapiens
[19] = test system: HEK293; assay: cells; type: functional, cell-based; conditions: Homo sapiens
[20] = target: T4, Nuclear receptor subfamily 0 group B member 1 (Homo sapiens, UniProt P51843); assay: Luminescence-based cell-based high throughput dose response assay for inhibitors of the orphan nuclear receptor subfamily 0, group B, member 1 (DAX1; NR0B1). [Related pubchem assays (depositor defined):AID504766, AID504790]; type: functional
T4 sequence (P51843 whole entry): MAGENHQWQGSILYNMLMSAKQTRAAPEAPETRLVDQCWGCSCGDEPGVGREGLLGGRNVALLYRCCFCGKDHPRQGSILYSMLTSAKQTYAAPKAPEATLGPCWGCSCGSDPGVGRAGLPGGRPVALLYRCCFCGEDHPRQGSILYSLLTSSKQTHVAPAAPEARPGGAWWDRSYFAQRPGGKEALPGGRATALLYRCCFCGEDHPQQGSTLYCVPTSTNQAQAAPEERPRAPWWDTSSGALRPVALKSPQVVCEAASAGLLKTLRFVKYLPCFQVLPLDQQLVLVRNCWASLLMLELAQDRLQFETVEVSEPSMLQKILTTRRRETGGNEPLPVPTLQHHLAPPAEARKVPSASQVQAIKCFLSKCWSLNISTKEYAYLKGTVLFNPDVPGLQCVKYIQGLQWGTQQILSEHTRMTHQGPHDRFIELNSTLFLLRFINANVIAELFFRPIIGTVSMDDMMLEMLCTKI

[21] = Luminescence Cell-Based Dose Confirmation HTS to Identify Activators of 5'UTR Stem-Loop Driven Alpha-Synuclein mRNA Translation in H4 Neuroglioblastoma Cells. [Related pubchem assays: 1829 (Project Summary), 1814 (Primary HTS)]; type: functional
[22] = target: T5, Corticotropin-releasing factor receptor 2/Corticotropin-releasing factor-binding protein (Homo sapiens, UniProt P24387+Q13324); assay: activators of CRF receptor 2 with binding protein – uHTS hits, confirmation (AID 602473); type: functional; conditions: read-out: EC50_Mean
T5 sequence (Q13324 whole entry): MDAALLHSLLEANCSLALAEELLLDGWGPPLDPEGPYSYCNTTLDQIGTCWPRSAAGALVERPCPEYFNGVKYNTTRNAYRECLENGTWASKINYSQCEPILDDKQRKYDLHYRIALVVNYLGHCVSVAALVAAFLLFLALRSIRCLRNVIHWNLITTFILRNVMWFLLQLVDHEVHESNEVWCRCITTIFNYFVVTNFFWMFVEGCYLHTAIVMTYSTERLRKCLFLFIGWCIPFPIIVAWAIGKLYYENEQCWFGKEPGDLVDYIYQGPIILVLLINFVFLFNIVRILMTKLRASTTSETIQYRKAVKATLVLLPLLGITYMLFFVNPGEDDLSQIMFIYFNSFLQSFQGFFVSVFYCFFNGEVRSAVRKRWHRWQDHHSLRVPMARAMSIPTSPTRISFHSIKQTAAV
T5 sequence (P24387 whole entry): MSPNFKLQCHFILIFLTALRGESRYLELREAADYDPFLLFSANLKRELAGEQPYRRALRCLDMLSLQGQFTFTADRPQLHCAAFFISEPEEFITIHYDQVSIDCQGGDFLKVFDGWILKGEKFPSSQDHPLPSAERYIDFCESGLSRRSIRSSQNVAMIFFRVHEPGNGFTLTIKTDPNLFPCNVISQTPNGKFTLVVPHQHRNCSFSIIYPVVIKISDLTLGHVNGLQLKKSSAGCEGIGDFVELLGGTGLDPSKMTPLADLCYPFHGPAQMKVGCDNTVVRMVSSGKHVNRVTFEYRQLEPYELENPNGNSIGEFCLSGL

[23] = target: T6, Microphthalmia-associated transcription factor (Homo sapiens, UniProt O75030); assay: TRPM1 promoter luciferase signal decrease, dose response, MITF inhibitor project, cell-based, SK-MEL-5, cherry-picked, set 3 (AID 493073); type: functional
T6 sequence (O75030 whole entry): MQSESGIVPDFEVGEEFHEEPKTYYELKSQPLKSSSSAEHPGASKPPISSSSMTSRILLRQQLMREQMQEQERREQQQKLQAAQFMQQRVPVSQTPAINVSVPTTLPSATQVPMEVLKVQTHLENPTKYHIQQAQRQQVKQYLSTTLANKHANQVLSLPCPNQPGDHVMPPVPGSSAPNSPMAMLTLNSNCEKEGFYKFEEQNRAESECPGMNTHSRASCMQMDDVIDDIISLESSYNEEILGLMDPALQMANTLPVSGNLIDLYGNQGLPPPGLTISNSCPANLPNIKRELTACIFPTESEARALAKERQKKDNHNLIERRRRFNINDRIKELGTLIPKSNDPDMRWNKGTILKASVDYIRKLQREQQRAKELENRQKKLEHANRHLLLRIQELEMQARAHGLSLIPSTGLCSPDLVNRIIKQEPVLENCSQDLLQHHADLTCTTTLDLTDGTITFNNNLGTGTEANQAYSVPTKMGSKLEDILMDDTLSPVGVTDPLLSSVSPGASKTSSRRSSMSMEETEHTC

[24] = target: T7, DNA repair protein RAD52 homolog (Homo sapiens, UniProt P43351); type: functional, biochemical
T7 sequence (P43351 whole entry): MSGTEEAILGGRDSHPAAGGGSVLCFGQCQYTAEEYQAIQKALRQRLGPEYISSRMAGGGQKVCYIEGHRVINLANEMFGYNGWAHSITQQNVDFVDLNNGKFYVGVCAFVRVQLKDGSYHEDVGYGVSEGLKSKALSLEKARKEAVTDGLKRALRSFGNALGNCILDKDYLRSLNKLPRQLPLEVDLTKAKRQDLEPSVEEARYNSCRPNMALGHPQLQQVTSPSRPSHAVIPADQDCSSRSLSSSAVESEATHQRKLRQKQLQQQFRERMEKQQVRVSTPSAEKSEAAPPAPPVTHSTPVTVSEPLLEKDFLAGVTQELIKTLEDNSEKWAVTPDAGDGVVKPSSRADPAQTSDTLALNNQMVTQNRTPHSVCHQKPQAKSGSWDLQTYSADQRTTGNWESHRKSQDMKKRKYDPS

[25] = target: T8, Ubiquitin-conjugating enzyme E2 N (Homo sapiens, UniProt P61088); type: functional;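 also: Dose-response confirmation in a TR-FRET assay detecting UBC13-driven polyubiquitin chain formation, inhibition measured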
T8 sequence (P61088 whole entry): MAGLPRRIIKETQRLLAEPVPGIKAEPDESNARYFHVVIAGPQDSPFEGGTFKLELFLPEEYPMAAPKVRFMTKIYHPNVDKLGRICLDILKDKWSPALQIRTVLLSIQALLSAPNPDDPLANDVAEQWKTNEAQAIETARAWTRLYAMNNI

[26] = test system: A-375; assay: A375 melanoma cell viability reduction, dose response, counter-screen for MITF modulator project, cherry-pick samples, set 2 (AID 540335); type: functional, cell-based; conditions: Homo sapiens
[27] = target: Beta-2 adrenergic receptor (Homo sapiens, UniProt P07550); assay: beta2AR agonists driving receptor internalization, dose response, cell-based, FAP fluorogen, flow cytometry, cherry pick 1 (AID 588763); type: functional
Sequence of Beta-2 adrenergic receptor (P07550 whole entry): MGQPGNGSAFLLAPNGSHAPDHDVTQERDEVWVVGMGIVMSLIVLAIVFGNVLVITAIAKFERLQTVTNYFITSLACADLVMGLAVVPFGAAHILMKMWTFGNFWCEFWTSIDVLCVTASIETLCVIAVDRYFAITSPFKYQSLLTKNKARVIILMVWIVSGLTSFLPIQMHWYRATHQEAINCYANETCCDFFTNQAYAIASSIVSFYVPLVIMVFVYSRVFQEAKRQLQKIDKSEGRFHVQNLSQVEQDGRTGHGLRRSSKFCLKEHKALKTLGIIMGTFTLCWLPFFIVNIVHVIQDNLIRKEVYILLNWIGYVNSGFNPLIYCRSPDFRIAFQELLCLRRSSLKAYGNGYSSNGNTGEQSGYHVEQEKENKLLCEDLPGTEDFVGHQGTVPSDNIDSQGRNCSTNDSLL

Sequence of Paired box protein Pax-8 (Q06710 whole entry, the tested form may be a part): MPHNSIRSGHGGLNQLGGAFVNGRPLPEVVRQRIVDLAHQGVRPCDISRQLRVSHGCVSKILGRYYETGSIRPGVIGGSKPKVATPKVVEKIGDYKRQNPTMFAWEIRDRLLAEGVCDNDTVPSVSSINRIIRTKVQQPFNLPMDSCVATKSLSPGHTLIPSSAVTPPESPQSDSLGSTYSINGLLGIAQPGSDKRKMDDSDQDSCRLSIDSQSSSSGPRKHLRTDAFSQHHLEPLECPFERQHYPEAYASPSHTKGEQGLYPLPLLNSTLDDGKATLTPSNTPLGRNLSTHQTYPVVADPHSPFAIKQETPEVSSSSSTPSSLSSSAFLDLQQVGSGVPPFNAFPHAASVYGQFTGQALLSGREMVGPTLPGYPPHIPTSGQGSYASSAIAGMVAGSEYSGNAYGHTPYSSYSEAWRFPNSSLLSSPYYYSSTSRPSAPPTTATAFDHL

C[C@@H]1O[C@@H](O[C@@H]2C=C3CC[C@@H]4C(CC[C@]5(C)[C@@H](c6ccc(=O)oc6)CC[C@]45O)[C@@]3(C)CC2)[C@H](O)[C@H](O)[C@H]1O (stereo partly drawn)
AC50 [1]: 0.54 µM (active) | IC50 [2]: 0.33 µM (active) | AC50 [3]: 0.799 µM (active) | AC50 [4]: 0.613 µM (active) | AC50 [5]: 0.319 µM (active) | IC50 [6]: > 80 µM (inactive) | AC50 [7]: < 0.16 µM (active) | AC50 [8]: < 0.26 µM (active) | AC50 [9]: < 0.26 µM (active)

O=C(Nc1ccc2oc(-c3ccccc3)nc2c1)c1cc(-n2cnnc2)ccc1Cl
EC50 [10]: > 99 µM (inactive) | EC50 [11]: > 99 µM (inactive)

Cc1ccc(N=Nc2c(O)[nH]c3ccc(F)cc23)cc1
EC50 [10]: 29.9 µM (inactive) | EC50 [11]: > 99 µM (inactive) | EC50 [12]: > 300 µM (inconclusive) | EC50 [13]: > 300 µM (inconclusive) | AC50 [14]: 251 µM (active)

COc1ccc(C(=O)NC2=Nc3ccccc3N=C(C)C2c2ccccc2)cc1 (stereo not drawn)
EC50 [15]: 40.7 µM (active) | EC50 [16]: 78.6 µM (active) | EC50 [17]: 34.7 µM (active) | EC50 [18]: 18.9 µM (active) | IC50 [19]: 3.47 µM (active) | IC50 [20]: > 67.5 µM (inactive) | EC50 [21]: 9.66 µM (active)

CSc1nc(-c2ccc(N(C)C)cc2)c(C#N)c(=O)n1C
EC50 [10]: > 99 µM (inactive) | EC50 [11]: > 99 µM (inactive) | EC50 [22]: 7.08 µM (active)

CN(C)S(=O)(=O)c1cc(NC2CC(=O)N(c3ccc(F)cc3)C2=O)ccc1Cl (stereo not drawn)
IC50 [19]: > 67.5 µM (inactive) | IC50 [20]: > 67.5 µM (inactive)

Cc1c(CCOC(=O)c2ccc(Cl)cc2Cl)sc[n+]1CC(=O)c1ccc(Br)cc1
AC50 [23]: 19.8 µM (active) | AC50 [24]: 13 µM (active) | IC50 [25]: > 20 µM (inactive) | AC50 [26]: 23.5 µM (active)

O=C1C2CCCCN2C(=O)N1CCCCN1CCN(c2cccc(C(F)(F)F)c2)CC1 (stereo not drawn)
EC50 [27]: 2.52 µM (active)

Source: ChEMBL document CHEMBL1201862, “PubChem BioAssay data set” (2004)
